Source: US20040156869A1, “2-substituted quinazolin-4-ylamine analogues” (Neurogen Corporation, priority 2002, published 2004)

target: human capsaicin receptor (VR1) (Homo sapiens, UniProt Q8NER1); test: Capsaicin receptor binding assay ([3H]RTX competition, VR1-transfected HEK293 membranes)
Sequence (Q8NER1 whole entry): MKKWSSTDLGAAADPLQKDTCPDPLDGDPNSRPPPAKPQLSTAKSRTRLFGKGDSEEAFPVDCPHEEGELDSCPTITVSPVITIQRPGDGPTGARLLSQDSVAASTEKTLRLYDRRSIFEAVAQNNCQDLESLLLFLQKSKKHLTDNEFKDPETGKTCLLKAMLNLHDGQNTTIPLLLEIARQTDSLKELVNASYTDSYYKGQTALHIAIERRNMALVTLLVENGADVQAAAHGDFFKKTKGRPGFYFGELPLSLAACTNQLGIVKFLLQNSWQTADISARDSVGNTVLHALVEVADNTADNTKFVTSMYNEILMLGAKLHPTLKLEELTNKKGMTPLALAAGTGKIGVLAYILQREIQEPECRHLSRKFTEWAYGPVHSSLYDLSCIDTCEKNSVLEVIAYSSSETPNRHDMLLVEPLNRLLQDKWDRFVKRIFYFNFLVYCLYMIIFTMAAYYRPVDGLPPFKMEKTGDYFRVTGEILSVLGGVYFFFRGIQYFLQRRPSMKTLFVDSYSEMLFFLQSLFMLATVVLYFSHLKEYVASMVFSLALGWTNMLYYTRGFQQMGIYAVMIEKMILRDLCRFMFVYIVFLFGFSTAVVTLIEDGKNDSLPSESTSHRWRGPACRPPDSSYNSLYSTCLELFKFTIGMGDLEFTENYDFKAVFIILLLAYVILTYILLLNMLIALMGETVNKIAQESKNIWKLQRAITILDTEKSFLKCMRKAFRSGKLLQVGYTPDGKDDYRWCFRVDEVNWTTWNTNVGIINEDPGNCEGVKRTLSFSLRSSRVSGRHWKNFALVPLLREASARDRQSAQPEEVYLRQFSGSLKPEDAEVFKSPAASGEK

Ki, < 1 µM:
CC(C)c1ccc(Nc2nc(CN3C[C@@H](C)O[C@@H](C)C3)nc3cc(-c4ncccc4Cl)ccc23)cc1 [Compound 681, [7-(3-Chloro-pyridin-2-yl)-2-(2,6-dimethyl-morpholin-4-ylmethyl)-quinazolin-4-yl]-(4-isopropyl-phenyl)-amine (cis)]
C[C@@H]1CN(Cc2nc(Nc3ccc(C(C)(C)C)cc3)c3ccc(-c4ncccc4C(F)(F)F)cc3n2)CCO1 [Compound 682, (R)-(4-tert-Butyl-phenyl)-[2-(2-methyl-morpholin-4-ylmethyl)-7-(3-trifluoromethyl-pyridin-2-yl)-quinazolin-4-yl]-amine]
C[C@@H]1CN(Cc2nc(Nc3ccc(C(F)(F)F)cc3)c3ccc(-c4ncccc4C(F)(F)F)cc3n2)CCO1 [Compound 683, (R)-[2-(2-Methyl-morpholin-4-ylmethyl)-7-(3-trifluoromethyl-pyridin-2-yl)-quinazolin-4-yl]-(4-trifluoromethyl-phenyl)-amine]
CC(C)c1ccc(Nc2nc(CN3CCO[C@H](C)C3)nc3cc(-c4ncccc4C(F)(F)F)ccc23)cc1 [Compound 684, (R)-(4-Isopropyl-phenyl)-[2-(2-methyl-morpholin-4-ylmethyl)-7-(3-trifluoromethyl-pyridin-2-yl)-quinazolin-4-yl]-amine]
C[C@H]1CN(Cc2nc(Nc3ccc(C(C)(C)C)cc3)c3ccc(-c4ncccc4C(F)(F)F)cc3n2)CCO1 [Compound 685, (S)-(4-tert-Butyl-phenyl)-[2-(2-methyl-morpholin-4-ylmethyl)-7-(3-trifluoromethyl-pyridin-2-yl)-quinazolin-4-yl]-amine]
C[C@H]1CN(Cc2nc(Nc3ccc(C(F)(F)F)cc3)c3ccc(-c4ncccc4C(F)(F)F)cc3n2)CCO1 [Compound 686, (S)-[2-(2-Methyl-morpholin-4-ylmethyl)-7-(3-trifluoromethyl-pyridin-2-yl)-quinazolin-4-yl]-(4-trifluoromethyl-phenyl)-amine]
CC(C)c1ccc(Nc2nc(CN3CCO[C@@H](C)C3)nc3cc(-c4ncccc4C(F)(F)F)ccc23)cc1 [Compound 687, (S)-(4-Isopropyl-phenyl)-[2-(2-methyl-morpholin-4-ylmethyl)-7-(3-trifluoromethyl-pyridin-2-yl)-quinazolin-4-yl]-amine]
CC(C)c1ccc(Nc2nc(CN3C[C@@H](C)O[C@@H](C)C3)nc3cc(-c4ncccc4C(F)(F)F)ccc23)cc1 [Compound 688, [2-(2,6-Dimethyl-morpholin-4-ylmethyl)-7-(3-trifluoromethyl-pyridin-2-yl)-quinazolin-4-yl]-(4-isopropyl-phenyl)-amine (cis)]
CCN1CCC(c2nc(Nc3ccc(C(F)(F)F)cc3)c3ccc(-c4ncccc4C(F)(F)F)cc3n2)CC1 [Compound 689, [2-(1-Ethyl-piperidin-4-yl)-7-(3-trifluoromethyl-pyridin-2-yl)-quinazolin-4-yl]-(4-trifluoromethyl-phenyl)-amine]
CCCN1CCC(c2nc(Nc3ccc(C(F)(F)F)cc3)c3ccc(-c4ncccc4C(F)(F)F)cc3n2)CC1 [Compound 690, [2-(1-Propyl-piperidin-4-yl)-7-(3-trifluoromethyl-pyridin-2-yl)-quinazolin-4-yl]-(4-trifluoromethyl-phenyl)-amine]
FC(F)(F)c1ccc(Nc2nc(C3CCN(Cc4ccncc4)CC3)nc3cc(-c4ncccc4C(F)(F)F)ccc23)cc1 [Compound 691, [2-(1-Pyridin-4-ylmethyl-piperidin-4-yl)-7-(3-trifluoromethyl-pyridin-2-yl)-quinazolin-4-yl]-(4-trifluoromethyl-phenyl)-amine]
Cn1ccnc1CN1CCC(c2nc(Nc3ccc(C(F)(F)F)cc3)c3ccc(-c4ncccc4C(F)(F)F)cc3n2)CC1 [Compound 692, [2-[1-(1-Methyl-1H-imidazol-2-ylmethyl)-piperidin-4-yl]-7-(3-trifluoromethyl-pyridin-2-yl)-quinazolin-4-yl]-(4-trifluoromethyl-phenyl)-amine]
CC(=O)N1CCC(c2nc(Nc3ccc(C(F)(F)F)cc3)c3ccc(-c4ncccc4C(F)(F)F)cc3n2)CC1 [Compound 693, 1-{4-[4-(4-Trifluoromethyl-phenylamino)-7-(3-trifluoromethyl-pyridin-2-yl)-quinazolin-2-yl]-piperidin-1-yl}-ethanone]
CCC(=O)N1CCC(c2nc(Nc3ccc(C(F)(F)F)cc3)c3ccc(-c4ncccc4C(F)(F)F)cc3n2)CC1 [Compound 694, 1-{4-[4-(4-Trifluoromethyl-phenylamino)-7-(3-trifluoromethyl-pyridin-2-yl)-quinazolin-2-yl]-piperidin-1-yl}-propan-1-one]
FC(F)(F)c1ccc(Nc2nc([C@@H]3CCCN3)nc3cc(-c4ncccc4C(F)(F)F)ccc23)cc1 [Compound 695, (S)-[2-Pyrrolidin-2-yl-7-(3-trifluoromethyl-pyridin-2-yl)-quinazolin-4-yl]-(4-trifluoromethyl-phenyl)-amine]
CCCN1CCC[C@H]1c1nc(Nc2ccc(C(F)(F)F)cc2)c2ccc(-c3ncccc3C(F)(F)F)cc2n1 [Compound 696, (S)-[2-(1-Propyl-pyrrolidin-2-yl)-7-(3-trifluoromethyl-pyridin-2-yl)-quinazolin-4-yl]-(4-trifluoromethyl-phenyl)-amine]
CC(C)(C)c1ccc(Nc2nc(CN3CCCS3(=O)=O)nc3cc(-c4ncccc4C(F)(F)F)ccc23)cc1 [Compound 697, (4-tert-Butyl-phenyl)-[2-(1,1-dioxo-1λ^6-isothiazolidin-2-ylmethyl)-7-(3-trifluoromethyl-pyridin-2-yl)-quinazolin-4-yl]-amine]
CC(=O)c1ccc(Nc2nc(CN3C[C@@H](C)O[C@@H](C)C3)nc3cc(-c4ncccc4C(F)(F)F)cnc23)cc1 [Compound 698, 1-{4-[2-(2,6-Dimethyl-morpholin-4-ylmethyl)-7-(3-trifluoromethyl-pyridin-2-yl)-pyrido[3,2-d]pyrimidin-4-ylamino]-phenyl}-ethanone (cis)]
FC(F)(F)c1ccc(Nc2nc(Cn3ccnc3)nc3cc(-c4ncccc4C(F)(F)F)cnc23)cc1 [Compound 699, [2-Imidazol-1-ylmethyl-7-(3-trifluoromethyl-pyridin-2-yl)-pyrido[3,2-d]pyrimidin-4-yl]-(4-trifluoromethyl-phenyl)-amine]
FC(F)(F)c1ccc(Nc2nc(Cn3ccnc3)nc3cc(-c4ncccc4Cl)cnc23)cc1 [Compound 700, [7-(3-Chloro-pyridin-2-yl)-2-imidazol-1-ylmethyl-pyrido[3,2-d]pyrimidin-4-yl]-(4-trifluoromethyl-phenyl)-amine]
C[C@@H]1CN(C(=O)c2nc(Nc3ccc(C(F)(F)F)cc3)c3ccc(-c4ncccc4C(F)(F)F)cc3n2)C[C@H](C)O1 [Compound 702, (2,6-Dimethyl-morpholin-4-yl)-[4-(4-trifluoromethyl-phenylamino)-7-(3-trifluoromethyl-pyridin-2-yl)-quinazolin-2-yl]-methanone (cis)]
CS(=O)(=O)N1CCC(c2nc(Nc3ccc(C(F)(F)F)cc3)c3ccc(-c4ncccc4C(F)(F)F)cc3n2)CC1 [Compound 703, [2-(1-Methanesulfonyl-piperidin-4-yl)-7-(3-trifluoromethyl-pyridin-2-yl)-quinazolin-4-yl]-(4-trifluoromethyl-phenyl)-amine]
CC(C)(CO)NCc1nc(Nc2ccc(C(F)(F)F)cc2)c2ccc(-c3ncccc3C(F)(F)F)cc2n1 [Compound 704, 2-Methyl-2-{[4-(4-trifluoromethyl-phenylamino)-7-(3-trifluoromethyl-pyridin-2-yl)-quinazolin-2-ylmethyl]-amino}-propan-1-ol]
CN1CCCN(Cc2nc(Nc3ccc(C(F)(F)F)cc3)c3ccc(-c4ncccc4C(F)(F)F)cc3n2)CC1 [Compound 705, [2-(4-Methyl-[1,4]diazepan-1-ylmethyl)-7-(3-trifluoromethyl-pyridin-2-yl)-quinazolin-4-yl]-(4-trifluoromethyl-phenyl)-amine]
CN(C)CCCN(C)Cc1nc(Nc2ccc(C(F)(F)F)cc2)c2ccc(-c3ncccc3C(F)(F)F)cc2n1 [Compound 706, N,N,N′-Trimethyl-N′-[4-(4-trifluoromethyl-phenylamino)-7-(3-trifluoromethyl-pyridin-2-yl)-quinazolin-2-ylmethyl]-propane-1,3-diamine]
CN(C)C(=O)c1nc(Nc2ccc(C(F)(F)F)cc2)c2ccc(-c3ncccc3C(F)(F)F)cc2n1 [Compound 707, 4-(4-Trifluoromethyl-phenylamino)-7-(3-trifluoromethyl-pyridin-2-yl)-quinazoline-2-carboxylic acid dimethylamide]
CNC(=O)c1nc(Nc2ccc(C(F)(F)F)cc2)c2ccc(-c3ncccc3C(F)(F)F)cc2n1 [Compound 708, 4-(4-Trifluoromethyl-phenylamino)-7-(3-trifluoromethyl-pyridin-2-yl)-quinazoline-2-carboxylic acid methylamide]
O=C(NCCN1CCOCC1)c1nc(Nc2ccc(C(F)(F)F)cc2)c2ccc(-c3ncccc3C(F)(F)F)cc2n1 [Compound 709, 4-(4-Trifluoromethyl-phenylamino)-7-(3-trifluoromethyl-pyridin-2-yl)-quinazoline-2-carboxylic acid (2-morpholin-4-yl-ethyl)-amide]
C[C@@H]1CN(Cc2nc(Nc3ccc(C4CC4)cc3)c3ccc(-c4ncccc4C(F)(F)F)cc3n2)C[C@H](C)O1 [Compound 710, (4-Cyclopropyl-phenyl)-[2-(2,6-dimethyl-morpholin-4-ylmethyl)-7-(3-trifluoromethyl-pyridin-2-yl)-quinazolin-4-yl]-amine (cis)]
